{"source": "patent US4228160A", "about": "(priority 1978, dated 1980)", "key": {"[1]": {"conditions": "aqueous solution, cited from earlier work"}, "[2]": {"assay": "Diffusion test through semipermeable membrane", "format": "physicochemical", "from_the_text": "The two sides of a diffusion cell are separated by a semipermeable membrane."}, "[3]": {"assay": "Stability in solubility test (thin layer chromatography)", "format": "physicochemical", "conditions": "under the conditions of the solubility tests"}, "[4]": {"assay": "Solubility tests at different pH", "format": "physicochemical", "conditions": "pH=2"}, "in vivo": {"assay": "in vivo", "parameters": "species or system rat (CFY strain)", "conditions": "rat, in vivo, po, 5 mg./kg. p.o.", "experimental": "(§1) Subacute toxicity test was carried out in male and female animals derived from CFY strain and 10--10 animals were treated for each substance and for male and female rats each.\n(§2) At the beginning of the investigation the animals were 7 weeks old and weighed 150-170 g. The animals were kept at a constant temperature (22°-24° C.) and under constant relative humidity (45-50%). During treatment the animals were on a standard diet and drank water ad libitum.\n(§3) The animals were treated daily at the same time of the day, in the morning. The test compound and the reference substance were administered in the form of a suspension prepared with 1% methyl cellulose through an oesophagial sound. The animals of the control group obtained 1% methyl cellulose per os. The weight increase of the animals and their clinical states were registered during the treatment every week.\n(§4) 1. Control: 1% methyl cellulose suspension 0.2 ml./100 g. per os;\n(§5) Investigation: the animals were treated for 28 days."}, "rat [5]": {"test_system": "rat", "assay": "in vivo", "parameters": "species or system rat (CFY strain)", "experimental": "as §1, §2, §3, §4, §5"}, "inflammation": {"test_system": "inflammation", "assay": "Speed of onset and duration of antiinflammatory activity, Carrageenin feet inflammation", "format": "in vivo, rat (female, strain CFY)", "conditions": "simultaneous administration with Carrageenin (FIG. 5)", "experimental": "The test compound, the reference substance, the animals, the treatment, doses, investigation are all the same as described above. The differences can be found below.\nIn this series of tests the following investigations were carried out:\n2. Carrageenin was given 1, 2 and 3 hours after the administration of the antiinflammatory agent and the results were evaluated after 3 hours. The animals were exterminated with ether and the weight of the separated untreated feet and feet treated with Carrageenin was measured. The feet were separated above the metacarpus.\nThe weight difference of the untreated and treated feet in the same animal was calculated. […] The antiinflammatory activity was calculated in percent and the results are plotted in FIGS. 4 and 5."}, "rat [6]": {"test_system": "rat", "format": "in vivo, rat (Long-Evans strain)", "experimental": "As a reference compound pure Indomethacin is used.\nSubacute toxicity test was carried out in male and female animals derived from Long-Evans strain, 10--10 animals were treated for each test compound and both for female and male animals. At the beginning of the test the animals were 7 week old, of an average bodyweight of 140-160 g. The animals were kept at constant temperature (22°-24° C.) and under constant relative humidity (45-50%). During the treatment the animals were on a standard diet and drank water ad libitum.\nThe subacute toxicity test corresponds to a 4 weeks' treatment period. The animals were treated daily at the same time in the morning. The complex of a molar ratio 1:1 and the reference substance were administered in the form of a suspension in 1% methyl cellulose through an oesophaged sound. The animals of the control group get 1% methyl cellulose per os. The weight increase and the clinical state of the animals were registered during the treatment every week.\n1. Control: 1% methyl cellulose, 0.2 ml./100 g. per os\nThe animals were treated for 28 days. On the 29th day the living animals were exterminated with ether and the stomach and the duodenum were prepared. Also the stomach and duodenum of the animals perished during the treatment were prepared.\nIn each case the mucous membrane of the stomach, bile and intestine were examined macroscopically and the number of the eventual ulcers and erosions was determined."}, "ovariectomized rat": {"test_system": "ovariectomized rat", "assay": "Pregnancy protective activity in the ovariectomized rat", "format": "in vivo, rat (CFY strain)", "conditions": "per os", "description": "Test animal: female rat of an average weight of 308 g., derived from 18 CFY strain\nThe ovary of the animals was removed on the 17th day of pregnancy and the animals were placed individually in cages.\n6 animals were used as control.\nOn the 19th day and 20th day in the morning of the pregnancy the treatment was repeated."}, "[7]": {"conditions": "cited from earlier work"}, "[8]": {"conditions": "number related to treated animals, 28 days p.o., 40.3 mg./kg. CD-Ind or 5.0 mg./kg. Ind., control 0/10"}, "[9]": {"conditions": "16 mg./kg. 1:1 complex or 5 mg./kg. Indomethacin p.o., control 0/10"}, "[10]": {"conditions": "28 days, 16 mg./kg 1:1 complex or 5 mg./kg. Indomethacin p.o., control 0/10"}}, "note": "Where two headings read alike, the source gives them in different places.", "data": [{"compound": "COc1ccc2c(c1)c(CC(=O)O)c(C)n2C(=O)c1ccc(Cl)cc1", "note": "[Indomethacin, 1-(p-Chloro-benzoyl)-5-methoxy-2-methyl-indol-3-acetic acid]", "values": [{"measurement": "hydrolysis", "setting": "[1]; in the presence of glucose", "result": "hydrolyses rapidly"}, {"measurement": "hydrolysis", "setting": "[1]; in the presence of α-cyclodextrin", "result": "slowly"}, {"measurement": "hydrolysis", "setting": "[1]; in the presence of β-cyclodextrin", "result": "inhibits hydrolysis"}, {"measurement": "time to equilibrium", "setting": "[2]; pure buffer on other side", "result": 4, "unit": "h"}, {"measurement": "distribution of Indomethacin", "setting": "[2]; β-cyclodextrin buffer solution on other side, 4 hours", "result": "more Indomethacin on the β-cyclodextrin side after 4 hours, than on the Indomethacin side"}, {"measurement": "decomposition of Indomethacin", "setting": "[3]", "result": "not decomposed"}, {"measurement": "solubility", "setting": "[4]", "result": "substantially insoluble"}, {"measurement": "mortality at 336 h", "setting": "in vivo; by the 14th day, read-out: dead animals, male", "result": 80, "unit": "%"}, {"measurement": "mortality at 504 h", "setting": "in vivo; by the 21st day, read-out: dead animals, female", "result": 60, "unit": "%"}, {"measurement": "erosion, female", "setting": "rat [5]; [8]", "result": "7/10"}, {"measurement": "ulcer, female", "setting": "rat [5]; [8]", "result": "6/10"}, {"measurement": "ulcer, male", "setting": "rat [5]; [8]", "result": "7/10"}, {"measurement": "erosion, male", "setting": "rat [5]; number related to treated animals, 28 days p.o., 40.3 mg./kg. CD-Ind or 5.0 mg./kg. Ind., control 1/10", "result": "9/10"}, {"measurement": "Average body weight", "setting": "rat [5]; week 0, control 152.5", "result": 164.5, "unit": "g"}, {"measurement": "Average body weight", "setting": "rat [5]; week 0, control 154.5", "result": 161.5, "unit": "g"}, {"measurement": "Average body weight", "setting": "rat [5]; week 1, control 183.0", "result": 182.0, "unit": "g"}, {"measurement": "Average body weight", "setting": "rat [5]; week 1, control 196.5", "result": 210.7, "unit": "g"}, {"measurement": "Average body weight", "setting": "rat [5]; week 2, control 209.0", "result": 177.5, "unit": "g"}, {"measurement": "Average body weight", "setting": "rat [5]; week 2, control 240.5", "result": 212.5, "unit": "g"}, {"measurement": "Average body weight", "setting": "rat [5]; week 3, control 222.0", "result": 206.5, "unit": "g"}, {"measurement": "Average body weight", "setting": "rat [5]; week 3, control 276.5", "result": 287.5, "unit": "g"}, {"measurement": "Average body weight", "setting": "rat [5]; week 4, control 241.0", "result": 221.2, "unit": "g"}, {"measurement": "Average body weight", "setting": "rat [5]; week 4, control 300.5", "result": 320.0, "unit": "g"}, {"measurement": "antiinflammatory activity 6 hours after treatment", "setting": "inflammation", "result": "inflammation increases after 6 hours"}, {"measurement": "animals with ulcers, female", "setting": "rat [6]; 5 mg./kg.", "result": 70, "unit": "%"}, {"measurement": "animals with ulcers, male", "setting": "rat [6]; 5 mg./kg.", "result": 80, "unit": "%"}, {"measurement": "Lethality, 7th day, female", "setting": "rat [6]; [9]", "result": "1/10"}, {"measurement": "Lethality, 7th day, male", "setting": "rat [6]; [9]", "result": "4/10"}, {"measurement": "Lethality, 14th day, female", "setting": "rat [6]; [9]", "result": "2/10"}, {"measurement": "Lethality, 14th day, male", "setting": "rat [6]; [9]", "result": "4/10"}, {"measurement": "Lethality, 21st day, female", "setting": "rat [6]; [9]", "result": "3/10"}, {"measurement": "Lethality, 21st day, male", "setting": "rat [6]; [9]", "result": "5/10"}, {"measurement": "Lethality, 28th day, female", "setting": "rat [6]; [9]", "result": "6/10"}, {"measurement": "Lethality, 28th day, male", "setting": "rat [6]; [9]", "result": "6/10"}, {"measurement": "ulcer, female", "setting": "rat [6]; [10]", "result": "7/10"}, {"measurement": "ulcer, male", "setting": "rat [6]; [10]", "result": "8/10"}, {"measurement": "erosion, female", "setting": "rat [6]; 28 days, 16 mg./kg 1:1 complex or 5 mg./kg. Indomethacin p.o., control 2/10", "result": "10/10"}, {"measurement": "erosion, male", "setting": "rat [6]; 28 days, 16 mg./kg 1:1 complex or 5 mg./kg. Indomethacin p.o., control 3/10", "result": "10/10"}, {"measurement": "clinical symptoms", "setting": "rat [6]; from third day, 5 mg./kg. Indomethacin or 16 mg./kg. 1:1 complex", "result": "bradypnoe and depression"}, {"measurement": "foetus retention compared with the control", "setting": "ovariectomized rat", "result": "significantly increased the percentage of the foetus retention"}, {"measurement": "foeti left alive", "setting": "ovariectomized rat; 1.25 mg./kg. Indomethacin on 18th day, repeated 19th and 20th day, dissected 21st day, control 16.1%", "result": 58.8, "unit": "%"}, {"measurement": "original solubility", "setting": "[7]; 35° C., aqueous, without cyclodextrin", "result": 350, "unit": "µM"}, {"measurement": "solubility increased by cyclodextrin", "setting": "[7]; aqueous solution with cyclodextrin", "result": 980, "unit": "µM"}, {"measurement": "solubility increase", "setting": "[7]; with cyclodextrin vs original", "result": 2.8, "unit": "times"}]}]}
